Results on 16 molecules are retold here after US8268814B2, “Substituted sulfonamide compounds” (Gruenenthal GmbH, priority 2008, dated 2012).

Broadly, the inhibition is the relative decrease from the control value, in per cent.

The experiment has as its target T1, B1R receptor of the rat (rB1R) (Rattus norvegicus, UniProt P97583).
T1 construct: expressed in transfected cells; host or cells: CHO K1 cells (Chinese hamster ovary), stably transfected
T1 sequence (P97583 1-337): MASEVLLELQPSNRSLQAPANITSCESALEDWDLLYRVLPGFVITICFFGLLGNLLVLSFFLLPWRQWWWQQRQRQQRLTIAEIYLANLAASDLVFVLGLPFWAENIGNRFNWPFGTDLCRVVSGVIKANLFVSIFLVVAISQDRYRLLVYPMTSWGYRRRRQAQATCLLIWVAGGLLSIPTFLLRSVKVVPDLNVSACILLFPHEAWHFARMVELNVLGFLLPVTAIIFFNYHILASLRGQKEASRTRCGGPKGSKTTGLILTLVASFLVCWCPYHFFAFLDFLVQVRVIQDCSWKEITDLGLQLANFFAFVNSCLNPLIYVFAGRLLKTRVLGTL
Nature of the experiment: Functional FLIPR Ca2+ assay on the bradykinin 1 receptor, rat (rB1R CHO K1 cells). The experiment is classed as cell-based. Conditions: test substance 10 μM; CHO K1 cells transfected with rat B1R gene; agonist Des-Arg9-bradykinin at EC80; % inhibition compared with maximum achievable inhibition; read-out: B1R antagonism, rat [10 μM] % inhibition. The method, then:
The agonistic or antagonistic action of substances can be quantified on the bradykinin 1 receptor (B1R) of the human and rat species with ectopically expressing cell lines (CHO K1 cells) and with the aid of a Ca^2+-sensitive dyestuff (Fluo-4) in a fluorescent imaging plate reader (FLIPR). The figure in % activation is based on the Ca^2+ signal after addition of Lys-Des-Arg^9-bradykinin (0.5 nM) or Des-Arg^9-bradykinin (100 nM). Antagonists lead to a suppression of the Ca^2+ inflow after addition of the agonist. % inhibition compared with the maximum achievable inhibition is stated.
The agonistic or antagonistic action of substances can be determined on the bradykinin 1 receptor (B1R) of the human and rat species with the following assay. In accordance with this assay, the Ca^2+ inflow through the channel is quantified with the aid of a Ca^2+-sensitive dyestuff (type Fluo-4, Molecular Probes Europe BV, Leiden, Holland) in a fluorescent imaging plate reader (FLIPR, Molecular Devices, Sunnyvale, USA).
Chinese hamster ovary cells (CHO K1 cells) transfected stably with the human B1R gene (hB1R cells) or the B1R gene of the rat (rB1R cells) are used. For functional studies, these cells are plated out on black 96-well plates with a clear base (BD Biosciences, Heidelberg, Germany or Greiner, Frickenhausen, Germany) in a density of 20,000-35,000 cells/well. The cells are left overnight at 37° C. and 5% CO2 in culture medium (hB1R cells: Nutrient Mixture Ham's F12, Gibco Invitrogen GmbH, Karlsruhe, Germany or DMEM, Sigma-Aldrich, Taufkirchen, Germany; rB1R cells: D-MEM/F12, Gibco Invitrogen GmbH, Karlsruhe, Germany) with 10 vol. % FBS (foetal bovine serum, Gibco Invitrogen GmbH, Karlsruhe, Germany or PAN Biotech GmbH, Aidenbach, Germany). On the following day, the cells are loaded for 60 min at 37° C. with 2.13 μM Fluo-4 (Molecular Probes Europe BV, Leiden, Holland) in HBSS buffer (Hank's buffered saline solution, Gibco Invitrogen GmbH, Karlsruhe, Germany) with 2.5 mM probenecid (Sigma-Aldrich, Taufkirchen, Germany) and 10 mM HEPES (Sigma-Aldrich, Taufkirchen, Germany). The plates are then washed 2× with HBSS buffer, and HBSS buffer which additionally contains 0.1% BSA (bovine serum albumin; Sigma-Aldrich, Taufkirchen, Germany), 5.6 mM glucose and 0.05% gelatine (Merck KgaA, Darmstadt, Germany) is added. After a further incubation of 20 minutes at room temperature, the plates are inserted into the FLIPR for the Ca^2+ measurement.
Alternatively, the plates are washed with buffer A (15 mM HEPES, 80 mM NaCl, 5 mM KCl, 1.2 mM CaCl2, 0.7 mM MgSO4, 2 g/l glucose, 2.5 mM probenecid), buffer A is added and the plates are loaded with 2.5 μM Fluo-4 and 0.025% Pluronic F127 (Sigma-Aldrich, Taufkirchen, Germany). Thereafter, the cells are washed 2× with buffer A and incubated for 30 minutes with buffer A, which additionally contains 0.05% BSA and 0.05% gelatine, at room temperature and thereafter inserted into the FLIPR for the Ca^2+ measurement. The Ca^2+-dependent fluorescence is measured here before and after addition of substances (λex=488 nm, λem=540 nm). Quantification is by measurement of the highest fluorescence intensity (FC, fluorescence counts) over time.
The FLIPR protocol consists of 2 additions of substance. Test substances (10 μM) are first pipetted on to the cells and the Ca^2+ inflow is compared with the control (hB1R: Lys-Des-Arg^9-bradykinin >=50 nM; rB1R: Des-Arg^9-bradykinin 10 μM). This gives the figure in % activation based on the Ca^2+ signal after addition of Lys-Des-Arg^9-bradykinin (>=50 nM) or Des-Arg^9-bradykinin (10 μM). After incubation for 10-20 minutes, Lys-Des-Arg^9-bradykinin (hB1R) or Des-Arg^9-bradykinin (rB1R) in the concentration of the EC80 is applied and the inflow of Ca^2+ is likewise determined. Antagonists lead to a suppression of the Ca^2+ inflow. % inhibition compared with the maximum achievable inhibition is calculated. In order to determine the IC50 value, the substances are added in various concentrations. […]

For `Cc1cc(S(=O)(=O)N2CCCCC2CCC(=O)N2CCc3onc(C(=O)N4CCCCC4)c3C2)c(C)cc1Cl` (stereo not shown) [Example 04, 3-(1-(4-chloro-2,5-dimethylphenylsulfonyl)piperidin-2-yl)-1-(3-(piperidine-1-carbonyl)-6,7-dihydroisoxazolo[4,5-c]pyridin-5(4H)-yl)propan-1-one], the inhibition at 10 µM was found to be 56%.

Turning to `COc1cc(C)c(S(=O)(=O)N(C)CCOCC(=O)N2CCc3[nH]cnc3C2c2ccccc2)c(C)c1` (stereo not shown) [Example 66, 4-Methoxy-N,2,6-trimethyl-N-[2-[2-oxo-2-(4-phenyl-4,5,6,7-tetrahydro-1H-imidazo[4,5-c]pyridin-5-yl)-ethoxy]-ethyl]-benzenesulfonic acid amide], the inhibition at 10 µM is 97%.

With `Cc1cccc(Cl)c1S(=O)(=O)N1CCCCC1CCCC(=O)N1CCc2sc(CN3CCN(C)CC3)cc2C1` (stereo not shown) [Example 68, 4-[1-[(2-Chloro-6-methyl-phenyl)sulfonyl]-piperidin-2-yl]-1-[2-[(4-methyl-piperazin-1-yl)-methyl]-4,5,6,7-tetrahydro-thieno[3,2-c]pyridin-5-yl]-butan-1-one], the inhibition at 10 µM was found to be 103%.

Turning to `Cc1cccc(Cl)c1S(=O)(=O)N1CCCCC1CCCC(=O)N1CCc2[nH]cnc2C1c1ccccc1` (stereo not shown) [Example 69, 4-[1-[(2-Chloro-6-methyl-phenyl)sulfonyl]-piperidin-2-yl]-1-(4-phenyl-4,5,6,7-tetrahydro-1H-imidazo[4,5-c]pyridin-5-yl)-butan-1-one], the inhibition at 10 µM came out at 64%.

Take `COc1cc(C)c(S(=O)(=O)N2CCCCC2CCCC(=O)N2CCc3[nH]cnc3C2c2ccccc2)c(C)c1` (stereo not shown) [Example 71, 4-[1-[(4-Methoxy-2,6-dimethyl-phenyl)sulfonyl]-piperidin-2-yl]-1-(4-phenyl-4,5,6,7-tetrahydro-1H-imidazo[4,5-c]pyridin-5-yl)-butan-1-one]: the inhibition at 10 µM came out at 101%.

Consider `CN1CCN(Cc2cc3c(s2)CCN(C(=O)CCCC2CCCCN2S(=O)(=O)c2cccc4ccccc24)C3)CC1` (stereo not shown) [Example 73, 1-[2-[(4-Methyl-piperazin-1-yl)-methyl]-4,5,6,7-tetrahydro-thieno[3,2-c]pyridin-5-yl]-4-[1-(naphthalen-1-ylsulfonyl)-piperidin-2-yl]-butan-1-one], for which the inhibition at 10 µM worked out at 99%.

Regarding `O=C(CCCC1CCCCN1S(=O)(=O)c1cccc2ccccc12)N1CCc2[nH]cnc2C1c1ccccc1` (stereo not shown) [Example 74, 4-[1-(Naphthalen-1-ylsulfonyl)-piperidin-2-yl]-1-(4-phenyl-4,5,6,7-tetrahydro-1H-imidazo[4,5-c]pyridin-5-yl)-butan-1-one], the inhibition at 10 µM came to 95%.

Take `CN1CCN(Cc2cc3c(s2)CCN(C(=O)CCCC2CCCCN2S(=O)(=O)c2ccc4ccccc4c2)C3)CC1` (stereo not shown) [Example 75, 1-[2-[(4-Methyl-piperazin-1-yl)-methyl]-4,5,6,7-tetrahydro-thieno[3,2-c]pyridin-5-yl]-4-[1-(naphthalen-2-ylsulfonyl)-piperidin-2-yl]-butan-1-one]: the inhibition at 10 µM was determined as 103%.

As for `O=C(CCCC1CCCCN1S(=O)(=O)c1ccc2ccccc2c1)N1CCc2[nH]cnc2C1c1ccccc1` (stereo not shown) [Example 76, 4-[1-(Naphthalen-2-ylsulfonyl)-piperidin-2-yl]-1-(4-phenyl-4,5,6,7-tetrahydro-1H-imidazo[4,5-c]pyridin-5-yl)-butan-1-one], the inhibition at 10 µM was 48%.

For `COc1cc(C)c(S(=O)(=O)N(CCOCC(=O)N2CCc3sc(CN4CCN(C)CC4)cc3C2)Cc2ccc3c(c2)OCOC3)c(C)c1` [Example 78, N-(4H-[1,3]Benzodioxin-7-yl-methyl)-4-methoxy-2,6-dimethyl-N-[2-[2-[2-[(4-methyl-piperazin-1-yl)-methyl]-4,5,6,7-tetrahydro-thieno[3,2-c]pyridin-5-yl]-2-oxo-ethoxy]-ethyl]-benzenesulfonic acid amide], the inhibition at 10 µM was 98%.

With `COc1cc(C)c(S(=O)(=O)N(CCOCC(=O)N2CCc3sc(CN4CCN(C)CC4)cc3C2)Cc2ccccc2)c(C)c1` [Example 81, N-Benzyl-4-Methoxy-2,6-dimethyl-N-[2-[2-[2-[(4-methyl-piperazin-1-yl)-methyl]-4,5,6,7-tetrahydro-thieno[3,2-c]pyridin-5-yl]-2-oxo-ethoxy]-ethyl]-benzenesulfonic acid amide], the inhibition at 10 µM came to 102%.

Consider `COc1cc(C)c(S(=O)(=O)N(CCOCC(=O)N2CCc3[nH]cnc3C2c2ccccc2)Cc2ccccc2)c(C)c1` (stereo not shown) [Example 82, N-Benzyl-4-Methoxy-2,6-dimethyl-N-[2-[2-oxo-2-(4-phenyl-4,5,6,7-tetrahydro-1H-imidazo[4,5-c]pyridin-5-yl)-ethoxy]-ethyl]-benzenesulfonic acid amide], for which the inhibition at 10 µM was 100%.

Take `COc1cc(C)c(S(=O)(=O)N(CCOCC(=O)N2CCc3sc(CN4CCN(C)CC4)cc3C2)c2ccccc2)c(C)c1` [Example 83, 4-Methoxy-2,6-Dimethyl-N-[2-[2-[2-[(4-methyl-piperazin-1-yl)-methyl]-4,5,6,7-tetrahydro-thieno[3,2-c]pyridin-5-yl]-2-oxo-ethoxy]-ethyl]-N-phenyl-benzenesulfonic acid amide]: the inhibition at 10 µM was 101%.

Turning to `COc1cc(C)c(S(=O)(=O)N(CCOCC(=O)N2CCc3[nH]cnc3C2c2ccccc2)c2ccccc2)c(C)c1` (stereo not shown) [Example 84, 4-Methoxy-2,6-Dimethyl-N-[2-[2-oxo-2-(4-phenyl-4,5,6,7-tetrahydro-1H-imidazo[4,5-c]pyridin-5-yl)-ethoxy]-ethyl]-N-phenyl-benzenesulfonic acid amide], the inhibition at 10 µM stood at 97%.

Regarding `COc1cc(C)c(S(=O)(=O)N2c3ccccc3CCC2COCC(=O)N2CCc3sc(CN4CCN(C)CC4)cc3C2)c(C)c1` (stereo not shown) [Example 85, 2-[[1-[(4-Methoxy-2,6-dimethyl-phenyl)sulfonyl]-1,2,3,4-tetrahydro-quinolin-2-yl]-methoxy]-1-[2-[(4-methyl-piperazin-1-yl)-methyl]-4,5,6,7-tetrahydro-thieno[3,2-c]pyridin-5-yl]-ethanone], the inhibition at 10 µM turned out to be 102%.

On to `COc1cc(C)c(S(=O)(=O)N2c3ccccc3CCC2COCC(=O)N2CCc3[nH]cnc3C2c2ccccc2)c(C)c1` (stereo not shown) [Example 86, 2-[[1-[(4-Methoxy-2,6-dimethyl-phenyl)sulfonyl]-1,2,3,4-tetrahydro-quinolin-2-yl]-methoxy]-1-(4-phenyl-4,5,6,7-tetrahydro-1H-imidazo[4,5-c]pyridin-5-yl)-ethanone], for which the inhibition at 10 µM is 96%.
